Measurements taken from PMC4229301, “A Polymeric Prodrug of 5-Fluorouracil-1-Acetic Acid Using a Multi-Hydroxyl Polyethylene Glycol Derivative as the Drug Carrier” (PLoS ONE, 2014).

Key:
[1] = Pharmacokinetics study after i.v. injection in rats; assay type: in vivo, Wistar rats
Method: Male Wistar rats were purchased from The laboratory Animal Center of Sichuan University. 12 Wistar rats (body weight: 200 g±20 g) were divided into two groups randomly (n = 6). […] The blood samples were collected into heparinized centrifuge tubes at predetermined intervals (see Table S2 in file SI) by retro-orbital puncture, and the plasma was separated by centrifugation. Each plasma sample of the test groups was divided into two portions. They were treated as hydrolyzed and unhydrolyzed as described in the “In vitro drug release” section. The two portions of the samples were analyzed by HPLC to determine the plasma concentrations of released 5-FA and total 5-FA of the conjugate whereas the plasma samples of the control group were treated as unhydrolyzed samples.
(§1) The data of pharmacokinetics and in vivo distribution study were processed using the Drug and Statistics Software 2.0 (DAS 2.0, Shanghai, China). The statistical analysis of the samples was performed by using one-way ANOVA and Student's t-test. p-values <0.05 were considered as statistically different.

[2] = In vivo distribution in H22 tumor-bearing mice; design: species or system Kunming mice
Method: The tumor-bearing animal model was established by subcutaneous injection of H22 cells (1×10^7 cells/ml, in 0.2 ml saline) into the right axillary region of Kunming mice. The sizes of tumors were monitored 7 days after inoculation and the tumor volumes were calculated as described in the “Antitumor activity in tumor-bearing mice” section. The mice with tumor volumes between 0.35 cm^3 and 0.65 cm^3 were randomized into two groups (n = 30). […] The mice were exsanguinated and sacrificed by neck dislocation at predetermined time points. Tissues including heart, liver, spleen, lung, kidney, brain and tumor were collected, washed with physiological saline, weighed and homogenized with two fold concentrated physiological saline. The samples of the test group were treated as hydrolyzed samples as described in the section “In vitro drug release”, whereas those of the control group were treated as unhydrolyzed samples. All data are presented as the concentration of 5-FA.
as §1

Kunming mice = assay: Safety evaluation: myelosuppression (white blood cell and blood platelet counts) after intravenous administration; conditions: i.v., same doses, n=12
Method: All animals were fed on a light and dark cycle and allowed free access to standard chow and water. Temperature and relative humidity were kept at 25°C and 50%, respectively. After experiment, mice were sacrificed by neck dislocation, and all efforts were made to minimize suffering. […] The control group was given physiological saline (0.009 g/ml). Zero point one mL blood samples were collected at prearranged time intervals (one day before injection and 1, 4, 7, and 10 days post injection).

[3] = male, Wistar, rat, plasma, iv, 20 mg/kg
[4] = rats, i.v., 20 mg/kg 5-FA or 189 mg/kg 5-FA-PAE

O=C(O)Cn1cc(F)c(=O)[nH]c1=O [5-FA, 5-fluorouracil-1-acetic acid]
AUC(0-inf) [1, 3]: 21600 ± 4470 ng·h/mL | AUC(0-t) [1, 3]: 21400 ± 4360 ng·h/mL | Cmax [1, 3]: 74.9 ± 10.2 µg/mL | Tmax [1, 3]: 1 min | MRT last ([1]; male, Wistar, rat, plasma, iv, 20 mg/kg, read-out: MRT 0-t): 40.7 ± 8.52 min | MRT inf ([1]; male, Wistar, rat, plasma, iv, 20 mg/kg, read-out: MRT 0-∞): 47.7 ± 14.4 min | Vd ([1]; male, Wistar, rat, plasma, iv, 20 mg/kg, read-out: V (apparent volume of distribution)): 2.11 ± 0.62 L/kg | half-life ([1]; male, Wistar, rat, plasma, iv, 20 mg/kg, read-out: t1/2 (elimination half life) (converted)): 92.3 ± 25.1 min | concentration at 1 min ([1]; male, Wistar, rat, plasma, iv, rats, i.v. 20 mg/kg 5-FA, 1 min): 79.9 ± 10.2 µg/mL | concentration at 5 min ([1]; male, Wistar, rat, plasma, iv, rats, i.v. 20 mg/kg 5-FA, 5 min): 79.9 ± 2.86 µg/mL | concentration at 10 min ([1]; male, Wistar, rat, plasma, iv, rats, i.v. 20 mg/kg 5-FA, 10 min): 79.9 ± 3.52 µg/mL | concentration at 15 min ([1]; male, Wistar, rat, plasma, iv, rats, i.v. 20 mg/kg 5-FA, 15 min): 79.9 ± 5.07 µg/mL | concentration at 30 min ([1]; male, Wistar, rat, plasma, iv, rats, i.v. 20 mg/kg 5-FA, 30 min): 79.9 ± 2.8 µg/mL | concentration at 1 h ([1]; male, Wistar, rat, plasma, iv, rats, i.v. 20 mg/kg 5-FA, 1 h): 79.9 ± 0.986 µg/mL | concentration at 2 h ([1]; male, Wistar, rat, plasma, iv, rats, i.v. 20 mg/kg 5-FA, 2 h): 79.9 ± 0.814 µg/mL | time of complete removal from the blood circulation after administration ([1]; rats, i.v.): 6∼8 h | Plasma concentration, 5-FA ([1]; rats, i.v. 20 mg/kg 5-FA, 10 h): - | Plasma concentration, 5-FA ([1]; rats, i.v. 20 mg/kg 5-FA, 24 h): - | Cl (clearance) [1, 4]: 0.967 ± 0.259 mL/g/h | VRT 0-t [1, 4]: 1.519±0.326 h^2 | VRT 0-∞ [1, 4]: 2.703±1.558 h^2 | concentration in tumor over time ([2]; H22 tumor-bearing mice, i.v. 20 mg/kg 5-FA): undetectable after 6 h | concentration at 15 min ([2]; Kunming, mouse, tumor, iv, 20 mg/kg): 4860 ± 1620 ng/g | Kp at 4 h ([2]; Kunming, mouse, tumor/plasma, iv, 20 mg/kg, H22 tumor-bearing mice, i.v., 4 h after injection, read-out: ratio of tumor/plasma concentration): 1.99 | number of blood platelets (Kunming mice; 1 day after injection): 945 ± 139 ×10^9/L | number of blood platelets (Kunming mice; 4 days after injection): 781 ± 250 ×10^9/L | number of white blood cells (Kunming mice; 4 days after injection): 10.32±5.71 ×10^9/L | number of blood platelets (Kunming mice; 7 days after injection): 822 ± 198 ×10^9/L | number of white blood cells (Kunming mice; 7 days after injection): 10.24±4.50 ×10^9/L | number of blood platelets (Kunming mice; 10 days after injection): 860 ± 188 ×10^9/L | number of white blood cells (Kunming mice; 10 days after injection): 11.55±3.62 ×10^9/L

O=c1[nH]cc(F)c(=O)[nH]1 [5-Fu, 5-fluorouracil]
number of blood platelets (Kunming mice; 1 day after injection): 792 ± 122 ×10^9/L | number of blood platelets (Kunming mice; 4 days after injection): 819 ± 211 ×10^9/L | number of white blood cells (Kunming mice; 4 days after injection): 6.84±5.76 ×10^9/L | number of blood platelets (Kunming mice; 7 days after injection): 858 ± 254 ×10^9/L | number of white blood cells (Kunming mice; 7 days after injection): 7.34±2.82 ×10^9/L | number of blood platelets (Kunming mice; 10 days after injection): 863 ± 382 ×10^9/L | number of white blood cells (Kunming mice; 10 days after injection): 8.59±2.39 ×10^9/L
